From patent US20250144249A1, “METHODS USING SURFACE-EXPRESSIBLE ACTIVATABLE EPITOPES TO LOCALIZE AND/OR TREAT DISEASED CELLS” (EARLI Inc., priority 2022, published 2025)
Entries after “also recorded” stand apart in the source; their conditions may differ.

How the values were obtained:
Format in all cases: cell-based, human
H1299 cells [1] = assay: FACS detection of engineered DLL3 on the surface of transfected H1299 cells (Example 4); conditions: for expression level of DLL3 on the cell surface / percent positive (DLL3-positive cells): H1299 cells transfected with construct; for expression level of DLL3 on the cell surface: fluorescently labeled anti-DLL3 antibody, FACS, compared to wild-type DLL3 (NP116, NP127)
Text: Each of the six engineered DLL3 constructs ([…]) and two different wild-type DLL3 constructs (NP116 and NP127) was separately introduced to human non-small cell lung carcinoma, H1299 cells (also known as NCI-H1299 or CRL-5803) by transfection to analyze the expression of engineered DLL3. H1299 cells were then stained with fluorescently labeled anti-DLL3 antibodies and analyzed by fluorescence-activated cell sorting (FACS) to detect DLL3 expression. Panels A2-G2 in FIG. 8B, and NP116, NP127, NP244-NP249, and NP268 in FIG. 8C show the amount of DLL3 expressed on the cell surface corresponding to panels A1-G1 in FIG. 8A. […] Specifically, NP249 and NP247 increased percent positive to ˜80% and ˜94%, respectively (FIG. 8C).

H1299 cells [2] = assay: in vitro cell killing assay with anti-DLL3-PBD (Example 4); conditions: H1299 cells transfected with construct, treated with anti-DLL3-PBD; compared to NP116 or NP127; FIG. 8D
Procedure: Next, in vitro cell killing assay was performed to determine the ability of anti-DLL3 antibodies conjugated with a cytotoxic payload (anti-DLL3-PBD) to induce cytotoxicity. The anti-DLL3-PBD was introduced to H1299 cells transfected with NP247 (G1 in FIG. 8A), NP249 (D1 in FIG. 8A), NP116 (wild-type control), or NP127 (wild-type control).

H1299 cells [3] = assay: cell killing assay, CellTiter Glo 2.0 (Example 7); conditions: treated with anti-DLL3-PBD, 72 hours, compared to NP116, FIG. 13B
Procedure: Next, H1299 cells stably expressing WT or engineered DLL3 were seeded 5,000 cells/well in 96 well plates. 24 hours after seeding, H1299 cells were treated with a titration of either an unconjugated anti-DLL3 antibody or an anti-DLL3 antibody conjugated to a PBD toxin (anti-DLL3-PBD). 72 hours after antibody treatment, cell viability was assessed using the CellTiter Glo 2.0 assay kit and analyzed on a Promega GloMax Navigator.

H1299 cells [4] = assay: number of copies of anti-DLL3 antibody bound to DLL3 on the cell surface (quantification bead standard curve)
Procedure: Next, a physical number of copies of anti-DLL3 antibody bound to DLL3 expressed on the cell surface was assessed. H1299 cells were seeded into 96 well plate. 24 hours after seeding, H1299 cells were transfected with nanoplasmid vectors comprising NP116 (wild-type control), NP247 (with a single DLL3 epitope in the CD8 scaffold), or NP298 (with two DLL3 epitopes in the CD8 scaffold) via lipofectamine according to the manufacture's protocols. H1299 cells were then stained with fluorescently labeled anti-DLL3 antibodies for FACS analysis. Cells and commercially available beads for epitope quantification were then stained with an anti-DLL3 secondary antibody conjugated to Alexa Fluor® 647 (AF647). H1299 cells were subsequently analyzed on a BD Biosciences FACSAria IIu (FIGS. 10A-10C). The number of epitopes were calculated by comparing the cell's expression to the quantification bead standard curve (FIGS. 10B-10C).
Each of NP247 and NP298 constructs and wild-type DLL3 construct (NP116) was separately introduced to H1299 cells by transfection to analyze the expression of engineered DLL3. […] H1299 cells stably expressing wild-type or engineered DLL3 and commercially available beads for epitope quantification were then stained with an anti-DLL3 secondary antibody conjugated to Alexa Fluor® 647 (AF647). H1299 cells were subsequently analyzed on a BD Biosciences FACSAria IIu. […]

Molecule: NP246: engineered DLL3 construct, DLL3 residues 27-492, CD8a SP/CD28 transmembrane helix; SEQ ID NO: 36
- expression level of DLL3 on the cell surface (H1299 cells [1]): increased the expression level of DLL3

Molecule: NP247: engineered DLL3 construct, DLL3 residues 27-254, CD8a hinge, CD28 transmembrane helix; SEQ ID NO: 37
- loss of viability of cells expressing the construct (H1299 cells [2]): substantial loss in viability; also recorded: substantial loss of viability
- percent positive (DLL3-positive cells) (H1299 cells [1]; FIG. 8C): ~94%
- expression level of DLL3 on the cell surface (H1299 cells [1]): increased the expression level of DLL3
- mean fluorescence intensity (H1299 cells [1]; compared to DLL3 wild-type or the DLL3 stable cell line, FIG. 8C): significantly higher mean fluorescence intensity
- loss of viability / susceptibility to cell death of cells expressing the construct (H1299 cells [3]): may be more susceptible to cell death; also recorded: substantial loss of viability
- increase in copy number of anti-DLL3 antibodies compared to cells expressing NP116 (H1299 cells [4]; Example 5, H1299 cells transfected with nanoplasmid vectors, FIG. 10C): 13 fold
- increase in copy number of anti-DLL3 antibodies compared to cells expressing NP116 (H1299 cells [4]; Example 7, FIG. 13A): 21 fold

B1: NP244: engineered DLL3 construct, DLL3 residues 27-492 with EGFR signal peptide/transmembrane helix; SEQ ID NO: 34 (protein)
chain: MRPSGTAGAALLALLAALCPASRAAGVFELQIHSFGPGPGPGAPRSPCSARLPCRLFFRVCLKPGLSEEAAESPCALGAALSARGPVYTEQPGAPAPDLPLPDGLLQVPFRDAWPGTFSFIIETWREELGDQIGGPAWSLLARVAGRRRLAAGGPWARDIQRAGAWELRFSYRARCEPPAVGTACTRLCRPRSAPSRCGPGLRPCAPLEDECEAPLVCRAGCSPEHGFCEQPGECRCLEGWTGPLCTVPVSTSSCLSPRGPSSATTGCLVPGPGPCDGNPCANGGSCSETPRSFECTCPRGFYGLRCEVSGVTCADGPCFNGGLCVGGADPDSAYICHCPPGFQGSNCEKRVDRCSLQPCRNGGLCLDLGHALRCRCRAGFAGPRCEHDLDDCAGRACANGGTCVEGGGAHRCSCALGFGGRDCRERADPCAARPCAHGGRCYAHFSGLVCACAPGYMGARCEFPVHPDGASALPAAPPGLRPGDPQRYLSIATGMVGALLLLLVVALGIGLFMRRRHIVRKHMGGGSGGGSAYPYDVPDYAAYPYDVPDYA
- expression level of DLL3 on the cell surface (H1299 cells [1]): did not increase the expression level of DLL3

B2: NP245: engineered DLL3 construct, DLL3 residues 27-492 with PD-L1 signal peptide/transmembrane helix; SEQ ID NO: 35 (protein)
chain: MRIFAVFIFMTYWHLLNAAGVFELQIHSFGPGPGPGAPRSPCSARLPCRLFFRVCLKPGLSEEAAESPCALGAALSARGPVYTEQPGAPAPDLPLPDGLLQVPFRDAWPGTFSFIIETWREELGDQIGGPAWSLLARVAGRRRLAAGGPWARDIQRAGAWELRFSYRARCEPPAVGTACTRLCRPRSAPSRCGPGLRPCAPLEDECEAPLVCRAGCSPEHGFCEQPGECRCLEGWTGPLCTVPVSTSSCLSPRGPSSATTGCLVPGPGPCDGNPCANGGSCSETPRSFECTCPRGFYGLRCEVSGVTCADGPCFNGGLCVGGADPDSAYICHCPPGFQGSNCEKRVDRCSLQPCRNGGLCLDLGHALRCRCRAGFAGPRCEHDLDDCAGRACANGGTCVEGGGAHRCSCALGFGGRDCRERADPCAARPCAHGGRCYAHFSGLVCACAPGYMGARCEFPVHPDGASALPAAPPGLRPGDPQRYLLPLAHPPNERTHLVILGAILLCLGVALTFIFRHMGGGSGGGSAYPYDVPDYAAYPYDVPDYA
- expression level of DLL3 on the cell surface (H1299 cells [1]): increased the expression level of DLL3

B3: NP249: engineered DLL3 construct, DLL3 residues 27-492 with CD73 SP/GPI-anchor motif; SEQ ID NO: 39, 46 (protein)
chain: MCPRAARAPATLLLALGAVLWPAAGAAGVFELQIHSFGPGPGPGAPRSPCSARLPCRLFFRVCLKPGLSEEAAESPCALGAALSARGPVYTEQPGAPAPDLPLPDGLLQVPFRDAWPGTFSFIIETWREELGDQIGGPAWSLLARVAGRRRLAAGGPWARDIQRAGAWELRFSYRARCEPPAVGTACTRLCRPRSAPSRCGPGLRPCAPLEDECEAPLVCRAGCSPEHGFCEQPGECRCLEGWTGPLCTVPVSTSSCLSPRGPSSATTGCLVPGPGPCDGNPCANGGSCSETPRSFECTCPRGFYGLRCEVSGVTCADGPCFNGGLCVGGADPDSAYICHCPPGFQGSNCEKRVDRCSLQPCRNGGLCLDLGHALRCRCRAGFAGPRCEHDLDDCAGRACANGGTCVEGGGAHRCSCALGFGGRDCRERADPCAARPCAHGGRCYAHFSGLVCACAPGYMGARCEFPVHPDGASALPAAPPGLRPGDPQRYLGGSSTGSHCHGSFSLIFLSLWAVIFVLYQ
- loss of viability of cells expressing the construct (H1299 cells [2]): substantial loss in viability; also recorded: substantial loss of viability
- percent positive (DLL3-positive cells) (H1299 cells [1]; FIG. 8C): ~80%
- expression level of DLL3 on the cell surface (H1299 cells [1]): increased the expression level of DLL3
